Experimental data from patent US20220125765A1, “PHARMACEUTICAL COMBINATIONS COMPRISING MEBENDAZOLE AND A STRONG OR MODERATE CYP1A2 INHIBITOR” (ZEPHAPHARM LTD, priority 2019, published 2022).
Like-named read-outs stand apart in the source and are kept apart here.

Assays:
CYP2C19 = CYP2C19 (Homo sapiens, UniProt P33261); assay: Cytochrome P450 reaction phenotyping, recombinant CYP2C19 (Bactosomes); conditions: for Compound Remaining (% of 0 min): CYP2C19, 5 μM
Procedure: Incubations were also performed using control Bactosomes™ (no P450 enzymes present) to reveal any non-enzymatic degradation. Control compounds known to be metabolised specifically by each P450 isoform were included. All incubations were performed singularly for each test compound.
Incubations were also performed using control Bactosomes™ (no P450 enzymes present) to reveal any non-enzymatic degradation. Control compounds known to be metabolised specifically by each P450 isoform were included. All incubations were performed singularly for each test compound. […] The reactions were stopped by transferring an aliquot of incubate to quench solvent at the appropriate time points, in a 1:3 ratio. The termination plates were centrifuged at 3,000 rpm for 20 min at 4° C. to precipitate the protein.

SXFS HT-1080 = assay: 2D monolayer CellTiter-Blue viability, soft tissue sarcoma HT-1080; assay type: cell-based; conditions: 72 h
Procedure: Seventeen compounds, including mebendazole (Batch no. MKCC1885, Sigma-Aldrich, 100% pure), were tested in vitro across a panel of 8 selected neuroblastoma (NBXF) and 13 selected sarcoma (SXF) derived cell lines by using a 2D monolayer assay. Compounds were tested at […] in half-log increments up to 100 μM and cells were treated for a period of 72 hours. Efficacy of compounds was assessed using CellTiter-Blue® Cell Viability Assay. Anti-tumor activity is expressed as absolute and relative IC50 and IC70 values, calculated by non-linear regression analysis.

A2780 = assay: 2D monolayer CellTiter-Blue viability, ovarian cancer A2780; assay type: cell-based; conditions: for Test/Control (%) at Drug Concentration: 72 h; for IC50: Homo sapiens
Procedure: (§1) Mebendazole was tested in vitro across a panel of 12 tumor cell lines of ovarian and renal cancer by using a 2D monolayer assay. […] OVXF 899L and RXF 486L are P-gp expressing, multidrug resistant cell lines.
(§2) Anti-tumor activity is expressed as absolute and relative IC50/70 values, calculated by 4-parameter non-linear curve fit.

OVCAR-5 = assay: 2D monolayer CellTiter-Blue viability, ovarian cancer OVCAR-5; assay type: cell-based; conditions: for IC50: Homo sapiens; for Test/Control (%) at Drug Concentration: 72 h
Procedure: as §1, §2

RXF 486L = assay: 2D monolayer CellTiter-Blue viability, renal cancer RXF 486L (P-gp expressing, multidrug resistant); assay type: cell-based; conditions: for Test/Control (%) at Drug Concentration: 72 h; for IC50: RXF 486L
Procedure: as §1, §2

BCRP = target: T1, BCRP (Homo sapiens, UniProt Q9UNQ0); assay: in vitro
T1 sequence (Q9UNQ0 1-655): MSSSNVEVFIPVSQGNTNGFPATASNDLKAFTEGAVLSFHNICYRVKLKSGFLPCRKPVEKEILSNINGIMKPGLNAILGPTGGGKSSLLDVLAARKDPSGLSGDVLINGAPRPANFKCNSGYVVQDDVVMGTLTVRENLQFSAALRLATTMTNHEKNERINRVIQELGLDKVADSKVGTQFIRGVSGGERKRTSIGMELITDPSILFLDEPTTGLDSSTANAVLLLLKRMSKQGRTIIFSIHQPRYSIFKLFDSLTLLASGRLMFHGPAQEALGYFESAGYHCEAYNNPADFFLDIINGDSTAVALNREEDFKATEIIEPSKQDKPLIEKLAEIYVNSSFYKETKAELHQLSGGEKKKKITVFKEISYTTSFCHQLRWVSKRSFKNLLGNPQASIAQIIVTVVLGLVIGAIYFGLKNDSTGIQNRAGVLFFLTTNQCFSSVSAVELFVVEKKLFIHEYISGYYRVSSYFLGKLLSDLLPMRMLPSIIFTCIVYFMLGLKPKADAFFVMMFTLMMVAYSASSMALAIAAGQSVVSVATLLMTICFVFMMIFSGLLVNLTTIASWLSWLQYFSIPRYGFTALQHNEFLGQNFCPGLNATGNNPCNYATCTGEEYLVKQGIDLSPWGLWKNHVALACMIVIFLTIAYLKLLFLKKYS
Text: Bidirectional apparent permeability of test compound was quantified by LC-MS/MS and used to determine an efflux ratio.

Sequence of CYP2C19 (P33261 whole entry, canonical isoform): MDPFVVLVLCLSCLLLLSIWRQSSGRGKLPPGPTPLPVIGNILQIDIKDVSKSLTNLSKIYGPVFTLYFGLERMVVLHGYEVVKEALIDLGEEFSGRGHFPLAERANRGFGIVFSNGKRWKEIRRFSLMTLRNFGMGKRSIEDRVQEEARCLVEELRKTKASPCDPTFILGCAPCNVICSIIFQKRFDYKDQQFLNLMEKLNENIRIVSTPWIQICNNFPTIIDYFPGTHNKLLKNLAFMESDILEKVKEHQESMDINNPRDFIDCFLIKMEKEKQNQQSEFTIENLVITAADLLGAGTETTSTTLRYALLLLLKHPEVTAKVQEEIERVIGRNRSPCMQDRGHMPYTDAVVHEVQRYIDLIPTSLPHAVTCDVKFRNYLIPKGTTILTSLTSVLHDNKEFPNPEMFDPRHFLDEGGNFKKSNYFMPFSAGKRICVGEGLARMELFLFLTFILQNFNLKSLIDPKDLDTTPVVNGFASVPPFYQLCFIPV

With `COC(=O)Nc1nc2ccc(C(=O)c3ccccc3)cc2[nH]1` [Mebendazole, methyl N-(6-benzoyl-1H-benzimidazol-2-yl)carbamate] the “Compound Remaining (% of 0 min)” value (CYP2C19; 0 min) was 100 % of 0 min, the “Compound Remaining (% of 0 min)” value (CYP2C19; 5 min) was 92.6 % of 0 min and the “Compound Remaining (% of 0 min)” value (CYP2C19; 15 min) was 82.1 % of 0 min. The “Compound Remaining (% of 0 min)” value (CYP2C19; 30 min) was 76.3 % of 0 min, the “Compound Remaining (% of 0 min)” value (CYP2C19; 45 min) was 70.5 % of 0 min and the half-life at 5 μM (CYP2C19; human, recombinant CYP2C19 (Bactosomes), pH 7.4) was 1.55 h. For the same compound, the “Test/Control (%) at Drug Concentration” value (SXFS HT-1080; HT-1080, 1.0E+00 μM) was 7%, the “Test/Control (%) at Drug Concentration” value (SXFS HT-1080; HT-1080, 1.0E+01 μM) was 4% and the “Test/Control (%) at Drug Concentration” value (SXFS HT-1080; HT-1080, 1.0E+02 μM) was 1%. The “Test/Control (%) at Drug Concentration” value (SXFS HT-1080; HT-1080, 1.0E−01 μM) was 79%, the “Test/Control (%) at Drug Concentration” value (SXFS HT-1080; HT-1080, 1.0E−02 μM) was 89% and the “Test/Control (%) at Drug Concentration” value (SXFS HT-1080; HT-1080, 3.2E+00 μM) was 4%. For the same compound, the “Test/Control (%) at Drug Concentration” value (SXFS HT-1080; HT-1080, 3.2E+01 μM) was 3%, the “Test/Control (%) at Drug Concentration” value (SXFS HT-1080; HT-1080, 3.2E−01 μM) was 35% and the “Test/Control (%) at Drug Concentration” value (SXFS HT-1080; HT-1080, 3.2E−02 μM) was 79%. The “Test/Control (%) at Drug Concentration” value (SXFS HT-1080; HT-1080, 3.2E−03 μM) was 90%, the “Test/Control (%) at Drug Concentration” value (A2780; A2780, 1.0E+00 μM) was 26% and the “Test/Control (%) at Drug Concentration” value (A2780; A2780, 1.0E−01 μM) was 91%. For the same compound, the “Test/Control (%) at Drug Concentration” value (A2780; A2780, 1.0E−02 μM) was 96%, the “Test/Control (%) at Drug Concentration” value (A2780; A2780, 1.0E−03 μM) was 95% and the “Test/Control (%) at Drug Concentration” value (A2780; A2780, 1.0E−04 μM) was 115%. For the same compound, the “Test/Control (%) at Drug Concentration” value (A2780; A2780, 3.2E+00 μM) was 13%, the “Test/Control (%) at Drug Concentration” value (A2780; A2780, 3.2E−01 μM) was 30% and the “Test/Control (%) at Drug Concentration” value (A2780; A2780, 3.2E−02 μM) was 97%. For the same compound, the “Test/Control (%) at Drug Concentration” value (A2780; A2780, 3.2E−03 μM) was 99%, the “Test/Control (%) at Drug Concentration” value (A2780; A2780, 3.2E−04 μM) was 109% and the “Abs. IC70” value (A2780; A2780, 72 h) was 323 nM. For the same compound, the “Rel. IC70” value (A2780; A2780, 72 h) was 231 nM, the “Bot. (%)” value (A2780; A2780, 72 h, curve fit) was 19% and the “Top (%)” value (A2780; A2780, 72 h, curve fit) was 102%. The IC50 (A2780; A2780, 72 h, read-out: Abs. IC50) was 209 nM, the IC50 (A2780; A2780, 72 h, read-out: Rel. IC50) was 178 nM and the IC50 (OVCAR-5; OVCAR-5, 72 h, read-out: Abs. IC50) was 865 nM. For the same compound, the IC50 (OVCAR-5; OVCAR-5, 72 h, read-out: Rel. IC50) was 732 nM, the “Test/Control (%) at Drug Concentration” value (OVCAR-5; OVCAR-5, 1.0E+00 μM) was 42% and the “Test/Control (%) at Drug Concentration” value (OVCAR-5; OVCAR-5, 1.0E−01 μM) was 90%. For the same compound, the “Test/Control (%) at Drug Concentration” value (OVCAR-5; OVCAR-5, 1.0E−02 μM) was 102%, the “Test/Control (%) at Drug Concentration” value (OVCAR-5; OVCAR-5, 1.0E−03 μM) was 103% and the “Test/Control (%) at Drug Concentration” value (OVCAR-5; OVCAR-5, 1.0E−04 μM) was 102%. The “Test/Control (%) at Drug Concentration” value (OVCAR-5; OVCAR-5, 3.2E+00 μM) was 22%, the “Test/Control (%) at Drug Concentration” value (OVCAR-5; OVCAR-5, 3.2E−01 μM) was 91% and the “Test/Control (%) at Drug Concentration” value (OVCAR-5; OVCAR-5, 3.2E−02 μM) was 95%. The “Test/Control (%) at Drug Concentration” value (OVCAR-5; OVCAR-5, 3.2E−03 μM) was 92%, the “Test/Control (%) at Drug Concentration” value (OVCAR-5; OVCAR-5, 3.2E−04 μM) was 96% and the “Abs. IC70” value (OVCAR-5; OVCAR-5, 72 h) was 1480 nM. For the same compound, the “Rel. IC70” value (OVCAR-5; OVCAR-5, 72 h) was 995 nM, the “Bot. (%)” value (OVCAR-5; OVCAR-5, 72 h, curve fit) was 20% and the “Top (%)” value (OVCAR-5; OVCAR-5, 72 h, curve fit) was 97%. The “Test/Control (%) at Drug Concentration” value (RXF 486L; RXF 486, 1.0E+00 μM) was 24%, the “Test/Control (%) at Drug Concentration” value (RXF 486L; RXF 486, 1.0E−01 μM) was 88% and the “Test/Control (%) at Drug Concentration” value (RXF 486L; RXF 486, 1.0E−02 μM) was 101%. The “Test/Control (%) at Drug Concentration” value (RXF 486L; RXF 486, 1.0E−03 μM) was 97%, the “Test/Control (%) at Drug Concentration” value (RXF 486L; RXF 486, 1.0E−04 μM) was 92% and the “Test/Control (%) at Drug Concentration” value (RXF 486L; RXF 486, 3.2E+00 μM) was 17%. The “Test/Control (%) at Drug Concentration” value (RXF 486L; RXF 486, 3.2E−01 μM) was 45%, the “Test/Control (%) at Drug Concentration” value (RXF 486L; RXF 486, 3.2E−02 μM) was 92% and the “Test/Control (%) at Drug Concentration” value (RXF 486L; RXF 486, 3.2E−03 μM) was 94%. The “Test/Control (%) at Drug Concentration” value (RXF 486L; RXF 486, 3.2E−04 μM) was 96%, the “Abs. IC70” value (RXF 486L; RXF 486, 72 h) was 545 nM and the “Rel. IC70” value (RXF 486L; RXF 486, 72 h) was 362 nM. The “Bot. (%)” value (RXF 486L; RXF 486, 72 h, curve fit) was 18%, the “Top (%)” value (RXF 486L; RXF 486, 72 h, curve fit) was 95% and the IC50 (RXF 486L; RXF 486, 72 h, read-out: Abs. IC50) was 292 nM. The IC50 (RXF 486L; RXF 486, 72 h, read-out: Rel. IC50) was 248 nM, the efflux ratio at 120 min, 10 μM (BCRP; Caco-2) was 1.23 and the Papp A→B at 120 min, 10 μM (BCRP; Caco-2, Papp Mean) was 23.5 ×10⁻⁶ cm/s. For the same compound, the Papp B→A at 120 min, 10 μM (BCRP; Caco-2, Papp Mean) was 29 ×10⁻⁶ cm/s, the Papp A→B at 120 min, 10 μM (BCRP; Caco-2, Papp Rep 1) was 19.7 ×10⁻⁶ cm/s and the Papp B→A at 120 min, 10 μM (BCRP; Caco-2, Papp Rep 1) was 28.2 ×10⁻⁶ cm/s. For the same compound, the Papp A→B at 120 min, 10 μM (BCRP; Caco-2, Papp Rep 2) was 27.4 ×10⁻⁶ cm/s, the Papp B→A at 120 min, 10 μM (BCRP; Caco-2, Papp Rep 2) was 29.8 ×10⁻⁶ cm/s and the recovery at 120 min, 10 µM (BCRP; Caco-2, calculated mean % recovery values (range)) was 52 to 75.7%.
